What all share (assay type): cell-based
Assay [1] concerns normal human bronchial/tracheal epithelial cells (NHBE w/RA). Nature of the assay: Protective effect against cell injury induced by oxidized LDL in normal human bronchial/tracheal epithelial cells (LDH leakage). The note with it: 24 h, average ± standard error; for inhibition at 3 µM: 3 μmol/L test compound; for inhibition at 30 µM: 30 μmol/L test compound. The method, then: (§1) Oxidized LDL was prepared by maintaining 1 mg/mL of rabbit LDL at 37° C for 24 hours in PBS (-) containing 10 μmol/L CUSO4.
(§2) These cells were dispersed in F12K medium containing 10% FBS and plated on a 24-well plate at 2.5×10^4 cells/500 μL/well. These cells were incubated at 37° C. for 18 hours and then the medium was replaced by F12K medium containing 2% FBS. At this time, 2.5 μL of a solution or a suspension of each test compound in ethanol was added at the concentrations of the test compound of 3 μmol/L and 30 μmol/L in each well.
(§3) After incubation at 37° C. for 6 hours, 50 μL of a suspension of oxidized LDL was added per well at the concentration of oxidized LDL of 100 μg/mL in each well.
(§4) After incubation at 37° C. for 24 hours, 200 μL of the supernatant was collected from each well and the amount of lactate dehydrogenase (LDH) leaked from cells was determined by the SFBC method.
(§5) Further test was carried out in the same manner as the above test with the exception that each test compound was added to the cell culture after incubation for 6 hours following medium replacement and immediately before oxidized LDL was added thereto rather than when the medium was replaced with F12K medium containing 2% FBS.
(§6) Higher LDH levels in the supernatant indicate that greater cell injury is induced by oxidized LDL. Separately, one experiment was carried out using a well in the same manner as the above test with the exception that no test compound was added to the well. The level of LDH in this well was defined as 0% cell protection. In addition, other experiment was carried out using another well without adding either test compound or oxidized LDL but with adding saline instead. The level of LDH in this well was defined as 100% cell protection. These levels of LDH were used for calculating cell protection of each test compound used in the above test.
This test example was carried out in a similar manner to test example 1 except that human A549 cells were replaced with normal human bronchial/tracheal epithelial cells (NHBE w/RA: BioWhittaker Co.), cell culture medium was changed from F12K medium containing 10% FBS to BEGM® medium, and the replacement of medium was not made.
(In general: LDH leaks from cells whose membrane has failed.)

Assay [2] relates to human A549 cells. Nature of the assay: Protective effect against cell injury induced by t-butyl hydroperoxide in human A549 cells. The note with it: t-BuOOH in saline in each well.
The test system of assay [3] is human A549 cells. Nature of the assay: Protective effect against cell injury induced by oxidized LDL in human A549 cells (LDH leakage). The note with it: for inhibition at 3 µM / inhibition at 30 µM: Homo sapiens, oxidized LDL 100 μg/mL, 24 hours, average ± standard error; for inhibition at 3 µM: 3 μmol/L test compound; for inhibition at 30 µM: 30 μmol/L test compound. The method, then:
as §1
Human A549 cells used in this test are available under accession number ATCC-CCL-185 and have the properties of type II alveolar epithelial cells (Lieber M, Smith B, Szakal A, Nelson-Rees W, Todaro G., A continuous tumor-cell line from a human lung carcinoma with properties of type II alveolar epithelial cells. Int J Cancer Jan. 15, 1976; 17(1):62-70).
as §2, §3, §4, §5, §6
Probucol and α-tocopherol were tested for comparison with the compounds of the present invention. In this test, the test compounds were added to the cell culture after incubation for 6 hours following medium replacement and immediately before oxidized LDL was added.

Setting [4] is: read-out: % Cell protection in the case where oxidized LDL was added 6 hrs after adding test compound.
[5] abbreviates: read-out: % Cell protection in the case where oxidized LDL was added immediately after adding test compound.

The structures appear in SMILES notation. Where two headings read alike, the source gives them in different places.

On to `CCCCCC1(CCCCC)Cc2c(cc(C(C)(C)C)c(O)c2C(C)(C)C)O1` [Compound 3, 4,6-di-t-butyl-2,2-di-n-pentyl-5-hydroxy-2,3-dihydrobenzofuran], for which the inhibition at 3 µM in assay [1] (setting [4]) is 49.8 ± 6.4%; in assay [1] (setting [5]), 9.8 ± 3.3%; in assay [3] (setting [4]) it was 18.7 ± 2.1%; in assay [3] (setting [5]), 14.3 ± 2.3%. The inhibition at 30 µM in assay [1] (setting [4]) came out at 70.8 ± 2%; in assay [1] (setting [5]) it was 66.2 ± 2.6%; in assay [3] (setting [4]), 95 ± 2.5%; in assay [3] (setting [5]), 85.4 ± 1.6%. Also, in assay [2], the “inhibition of cell injury induced by t-butyl hydroperoxide (FIG. 2)” value is given as “inhibits cell injury”. In assay [3] (test compound added immediately before oxidized LDL, Test Example 2), the “% cell protection as a function of test compound concentration (FIG. 1)” value is listed as “begins to sharply increase when the concentration of Compound 3 exceeds about 10 μmol/L”.

For the molecule `Cc1cc2c(c(C)c1O)CC(C)(C)O2` [Compound 15, 5-hydroxy-2,2,4,6-tetramethyl-2,3-dihydrobenzofuran], the inhibition at 3 µM in assay [1] (setting [4]) came out at 45.9 ± 4.5%; in assay [1] (setting [5]) it was 40.8 ± 3.3%; in assay [3] (setting [4]), 30 ± 10.2%; in assay [3] (setting [5]), 36.1 ± 14.1%. The inhibition at 30 µM worked out at 79.5 ± 6.4% in assay [1] (setting [4]), 70.6 ± 4.9% in assay [1] (setting [5]), 100.6 ± 0.9% in assay [3] (setting [4]) and 99.6 ± 0.7% in assay [3] (setting [5]).

With `CC1(C)Cc2c(c(C(C)(C)C)cc(O)c2C(C)(C)C)O1` [Compound 16, 4,7-di-t-butyl-5-hydroxy-2,2-dimethyl-2,3-dihydrobenzofuran], the inhibition at 3 µM in assay [1] (setting [4]) was 54.9 ± 3.4%; in assay [1] (setting [5]) it was 62.6 ± 1.6%; in assay [3] (setting [4]), 100.3 ± 1%; in assay [3] (setting [5]), 99.1 ± 0.9%. The results for the inhibition at 30 µM in assay [1] (setting [5]) and in assay [3] (setting [5]) were 42 ± 2.2% and 98.4 ± 0.6%, respectively.

Take `CCCCCC1(CCCCC)Cc2c(cc(C)c(O)c2C)O1` [Compound 17, 4,6-dimethyl-2,2-di-n-pentyl-5-hydroxy-2,3-dihydrobenzofuran]: the inhibition at 3 µM in assay [1] (setting [4]) turned out to be 44.8 ± 5.9%; in assay [1] (setting [5]) it was 51 ± 5%; in assay [3] (setting [4]), 97.8 ± 1.4%; in assay [3] (setting [5]), 97.7 ± 1.1%. Moreover, the inhibition at 30 µM in assay [1] (setting [5]) came out at 57.6 ± 0.6%; in assay [3] (setting [5]) it was 98.1 ± 3.6%.

With `CC(C)(C)c1cc2c(cc1O)CC1(CCCCCC1)O2` [Compound 18, 6-t-butyl-5-hydroxy-2,3-dihydrobenzofuran-2-spiro-1′-cycloheptane], the inhibition at 3 µM in assay [1] (setting [4]) was 55.7 ± 3.1%; in assay [1] (setting [5]) it was 46.4 ± 1.4%; in assay [3] (setting [4]) it was 98.7 ± 1.3%; in assay [3] (setting [5]), 96.2 ± 0.4%. Moreover, the inhibition at 30 µM in assay [1] (setting [5]) was 35.5 ± 1.9%; in assay [3] (setting [5]) it was 97.4 ± 1%.
